For one test, the target named is T1, thromboxane synthetase (Homo sapiens, UniProt P24557).
T1 construct: from tissue; host or cells: human platelets (microsomes)
T1 sequence (P24557 1-533): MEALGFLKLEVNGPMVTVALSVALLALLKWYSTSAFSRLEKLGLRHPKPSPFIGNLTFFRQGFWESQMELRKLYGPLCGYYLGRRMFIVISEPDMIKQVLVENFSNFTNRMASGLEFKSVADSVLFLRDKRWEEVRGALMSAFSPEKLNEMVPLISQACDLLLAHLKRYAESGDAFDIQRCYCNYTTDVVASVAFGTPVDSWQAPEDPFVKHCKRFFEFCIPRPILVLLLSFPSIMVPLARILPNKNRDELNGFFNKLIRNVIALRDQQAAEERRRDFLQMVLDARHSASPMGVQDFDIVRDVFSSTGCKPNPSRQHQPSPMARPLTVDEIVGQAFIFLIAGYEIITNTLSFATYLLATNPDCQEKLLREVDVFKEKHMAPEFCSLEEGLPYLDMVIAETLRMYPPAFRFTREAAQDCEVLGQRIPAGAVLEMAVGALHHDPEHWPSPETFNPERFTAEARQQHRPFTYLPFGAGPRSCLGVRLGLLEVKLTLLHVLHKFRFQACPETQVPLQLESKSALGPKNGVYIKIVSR
Briefly: in vitro inhibition of the thromboxane synthetase enzyme. In kind it is biochemical. The text has this:
Res. Comm. 74, 1432 (1977). The testing procedure is essentially carried out as described in U.S. Pat. No. 4,460,777.

For test [1], the target named is T2, prostaglandin cyclooxygenase (Bos taurus, UniProt O62664).
T2 construct: from tissue; host or cells: bovine seminal vesicles (microsomes)
T2 sequence (O62664 25-600): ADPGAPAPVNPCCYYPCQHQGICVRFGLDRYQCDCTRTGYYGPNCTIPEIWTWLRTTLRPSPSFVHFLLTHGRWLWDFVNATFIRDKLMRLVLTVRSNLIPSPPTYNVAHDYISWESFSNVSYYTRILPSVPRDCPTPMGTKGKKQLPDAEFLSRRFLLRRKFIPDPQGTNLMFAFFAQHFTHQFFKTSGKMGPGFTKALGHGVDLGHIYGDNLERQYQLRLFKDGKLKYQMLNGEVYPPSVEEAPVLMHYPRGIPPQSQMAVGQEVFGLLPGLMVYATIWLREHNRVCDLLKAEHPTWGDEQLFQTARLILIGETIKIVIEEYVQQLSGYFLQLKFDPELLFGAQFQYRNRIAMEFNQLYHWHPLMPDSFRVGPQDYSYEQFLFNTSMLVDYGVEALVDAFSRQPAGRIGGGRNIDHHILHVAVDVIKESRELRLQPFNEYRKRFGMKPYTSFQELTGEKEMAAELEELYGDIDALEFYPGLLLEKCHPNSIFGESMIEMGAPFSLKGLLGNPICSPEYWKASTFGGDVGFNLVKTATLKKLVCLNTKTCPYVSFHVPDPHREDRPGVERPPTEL
Briefly: in-vitro effect on prostaglandin cyclooxygenase. Format: biochemical. The settings on record: read-out: IC50 for cyclooxygenase inhibition. The procedure:
The in-vitro effect on prostaglandin cyclooxygenase is measured by a modification of the method of Takeguchi et al. described in Biochemistry 10, 2372 (1971); the testing procedure is described in U.S. Pat. No. 4,460,777.

Where only a bound is given, the exact number is not on record here.

Compound `O=C(O)CCCC(=O)c1cn(-c2cccnc2)c2ccccc12` [Example 2, 3-(1-oxo-4-carboxybutyl)-N-(3-pyridyl)-indole] came in with an IC50 at thromboxane synthetase of about 0.4 µM.

Turning to `O=C(O)CCCCc1cn(-c2cccnc2)c2ccccc12` [3-(4-carboxybutyl)-N-(3-pyridyl)indole, 3-(4-carboxybutyl)-N-(3-pyridyl)-indole], in test [1], the IC50 was over 1000 µM.
